Measured values: patent US8252832B2, “Kinesin inhibitors as cancer therapeutics” (Novartis AG, priority 2007, dated 2012)
Marks after values point to notes of the source that are not given here.

Test system: MV4; 11-luc disseminated AML disease
Experiment: MV4; 11-luc disseminated disease model, tumor response and survival
Assay type: in vivo, mouse
Protocol: Subcutaneous tumor efficacy studies were performed using outbred athymic nu/nu mice approximately 6-8 weeks old (Charles River Laboratories, Hollister, Calif.). The efficacy study in the disseminated disease model was performed using immunodeficient NOD-SCID female mice approximately 7-8 weeks old (Jackson Laboratories, Bar Harbor, Me.). […] Routine animal care and assurance of welfare were as described above.
Human MV4; 11 acute myelogenous leukemia cells were obtained from American Tissue Culture Collection (catalog #CRL-9591, Rockville, Md.) and tested to be free of Mycoplasma sp. and murine viruses in the IMPACT1 PCR assay panel (RADIL, University of Missouri, Columbia, Mo.). For the disseminated disease model, a stable pool of MV4; 11 cells expressing the luciferase gene was received from Fangxian Sun at the Genomics Institute of the Novartis Research Foundation in San Diego, Calif. (MV4; 11-luc). The MV4; 11 cells were grown in Iscove's modified Dulbecco's medium (Mediatech Inc., catalog #15-016-CV) supplemented with 10% fetal bovine serum (JRH Biosciences, catalog #12003-1000M), 4 mM L-glutamine and 5 ng/mL recombinant human […] (GM-CSF) (R&D Systems, catalog #215-GM). MV4; 11-luc were grown in the same media, but with the addition of 2 micrograms/mL of puromycin for selection of luciferase expression. These cells were grown as suspension cultures, maintained at 37° C. in a humidified atmosphere containing 5% carbon dioxide. Cells were cultured for fewer than 10 passages prior to use. Cells were harvested at approximately 2 million cells/mL, and centrifuged at ˜800×g for 5 minutes at 4° C. and then resuspended in a cold HBSS (Mediatech Inc., catalog #21-021-CV) at a concentration of 25 million cells/mL (containing 50% Matrigel™, BD Biosciences, catalog #354234) for implantation subcutaneously (injection volume of 0.2 mL) or at a concentration of 100 million cells/mL for implantation intravenously (i.v.) via the tail vein (injection volume of 0.1 mL). Mice were irradiated with 3 gray for 3 minutes one day prior to the i.v. cell implant.
The compound IIa (free base) and SB-715992 (free base) were formulated in 20% Captisol for a dose volume of 8 mL/kg. Doses were adjusted to each animal's body weight.
For the efficacy evaluation in the disseminated disease model, female NOD-SCID mice received whole-body irradiation at 3 gray the day before tail vein injection of 10 million cells in 0.1 mL HBSS. Forty mice were randomized and enrolled on study 28 days post-implant, with a mean photon count (dorsal view+ventral view) of approximately 5×10^7 photons/second, as determined by bioluminescence imaging. Approximately 10 minutes prior to imaging, mice were injected i.p. with 150 mg/kg luciferin (Xenogen Corporation, Alameda, Calif.), followed by anesthetization with isoflurane. Photon emission was measured using a charge coupled device camera in the IVIS imaging system (Xenogen Corporation). Briefly, a gray-scale image of the mice was captured, followed by an overlay of a bioluminescence map representing the spatial distribution of photons detected from cleaved luciferin in the cancer cells expressing luciferase. Signal intensity was quantified using a customized version of the IGOR Pro version 4.09A Software (WaveMetrics, Inc., Lake Oswego, Oreg.) called Living Image version 2.50.2 (Xenogen). The sum of all detected photon counts from the dorsal+ventral views was determined. Bioluminescence of cancer cells in the animals was measured by imaging on designated days until the first mice developed hind limb paralysis due to disease burden, the main end point for when to humanely euthanize mice. The day of euthanasia for each mouse was recorded and the remaining percentage of mice surviving was plotted over time (Kaplan-Meier survival analysis). P values were calculated using the log-rank test (GraphPad Prism 4.0 software) to assess differences between treated and control groups (p<0.05 was considered significant). […]

In the case of CC(C)(C)[C@H](c1nc(-c2cc(F)ccc2F)cn1Cc1ccccc1)N(CC[C@H](N)CF)C(=O)CO [Compound IIa], the “Median Day of Survival” value (0.25 mg/kg, q4d × 3, i.v) is reported as 27 days, the “Δ Tumor bioluminescence, Day 12” value (0.25 mg/kg, q4d × 3, i.v) is reported as 4.3 × 10^8 photons/sec and the “ΔT/ΔC, Day 12 (%)” value (0.25 mg/kg, q4d × 3, i.v) is reported as 46%. The “Median Day of Survival” value (0.25 mg/kg, q4d × 3, i.v, listed as COMPOUND IIa) was 27** day, the “Median Day of Survival” value (0.5 mg/kg, q4d × 3, i.v) was 31 days and the “Regression, Day 12 (%)” value (0.5 mg/kg, q4d × 3, i.v) was 9* %. For the same compound, the “Δ Tumor bioluminescence, Day 12” value (0.5 mg/kg, q4d × 3, i.v) was −4.0 × 10^6 photons/sec, the “Median Day of Survival” value (0.5 mg/kg, q4d × 3, i.v, listed as COMPOUND IIa) was 31** day and the “Median Day of Survival” value (1 mg/kg, q4d × 3, i.v.) was 30 days. The “Regression, Day 12 (%)” value (1 mg/kg, q4d × 3, i.v.) was 80* % and the “Median Day of Survival” value (1 mg/kg, q4d × 3, i.v, listed as COMPOUND IIa) was 30** day.
